In the supplement of paper PMC10307832:

Key:
Test in all cases: relative viability (nuclei count vs DMSO), 5 days (fraction); higher = more cells survive
201T = tested on: 201T
In short: (§1)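 The day after seeding in 1536-well plates, lung cancer cell lines were treated by pin tool with a single drug, or with a fixed anchor-drug dose together with five library-drug doses (not always all listed) in √10 steps. After 5 days, a combined fix-and-stain solution (final 0.05% Triton X-100, 1% formaldehyde, 1 ug/ml Hoechst) was added. Nuclei counted on 4× images gave relative viability as treated counts over vehicle counts, reported as the median of duplicate plates.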

A-427 = tested on: A-427
In short: as §1

COR-L23 = tested on: COR-L23
In short: as §1

H3255 = tested on: H3255
In short: as §1

HCC-44 = tested on: HCC-44
In short: as §1

LC-2-ad = tested on: LC-2-ad
In short: as §1

LCLC-103H = tested on: LCLC-103H
In short: as §1

LCLC-97TM1 = tested on: LCLC-97TM1
In short: as §1

LK-2 = tested on: LK-2
In short: as §1

LU99A = tested on: LU99A
In short: as §1

NCI-H1650 = tested on: NCI-H1650
In short: as §1

NCI-H1793 = tested on: NCI-H1793
In short: as §1

NCI-H2347 = tested on: NCI-H2347
In short: as §1

NCI-H23 = tested on: NCI-H23
In short: as §1

NCI-H460 = tested on: NCI-H460
In short: as §1

NCI-H596 = tested on: NCI-H596
In short: as §1

NCI-H727 = tested on: NCI-H727
In short: as §1

PC-14 = tested on: PC-14
In short: as §1

PC-3 [JPC-3] = tested on: PC-3 [JPC-3]
In short: as §1

SW 1573 = tested on: SW 1573
In short: as §1

SW 900 = tested on: SW 900
In short: as §1

## O=c1cc(N2CCOCC2)oc2c(-c3cccc4c3sc3ccccc34)cccc12 + Nc1ncn([C@H]2C[C@H](O)[C@@H](CO)O2)c(=O)n1 [Decitabine] (partner 2 µM)
201T; first compound 0.01 µM
  relative viability: 0.843
201T; first compound 0.03162 µM
  relative viability: 0.863
201T; first compound 0.1 µM
  relative viability: 0.83
201T; first compound 0.3162 µM
  relative viability: 0.86
201T; first compound 1 µM
  relative viability: 0.818
A-427; first compound 0.01 µM
  relative viability: 0.606
A-427; first compound 0.03162 µM
  relative viability: 0.552
A-427; first compound 0.1 µM
  relative viability: 0.58
A-427; first compound 0.3162 µM
  relative viability: 0.591
A-427; first compound 1 µM
  relative viability: 0.592
COR-L23; first compound 0.01 µM
  relative viability: 0.515
COR-L23; first compound 0.03162 µM
  relative viability: 0.434
COR-L23; first compound 0.1 µM
  relative viability: 0.475
COR-L23; first compound 0.3162 µM
  relative viability: 0.467
COR-L23; first compound 1 µM
  relative viability: 0.504
H3255; first compound 0.01 µM
  relative viability: 0.598
H3255; first compound 0.03162 µM
  relative viability: 0.715
H3255; first compound 0.1 µM
  relative viability: 0.56
H3255; first compound 0.3162 µM
  relative viability: 0.604
H3255; first compound 1 µM
  relative viability: 0.533
HCC-44; first compound 0.01 µM
  relative viability: 0.962
HCC-44; first compound 0.03162 µM
  relative viability: 0.993
HCC-44; first compound 0.1 µM
  relative viability: 0.97
HCC-44; first compound 0.3162 µM
  relative viability: 0.96
HCC-44; first compound 1 µM
  relative viability: 0.986
LC-2-ad; first compound 0.01 µM
  relative viability: 0.736
LC-2-ad; first compound 0.03162 µM
  relative viability: 0.801
LC-2-ad; first compound 0.1 µM
  relative viability: 0.79
LC-2-ad; first compound 0.3162 µM
  relative viability: 0.822
LC-2-ad; first compound 1 µM
  relative viability: 0.893
LCLC-103H; first compound 0.01 µM
  relative viability: 0.807
LCLC-103H; first compound 0.03162 µM
  relative viability: 0.763
LCLC-103H; first compound 0.1 µM
  relative viability: 0.766
LCLC-103H; first compound 0.3162 µM
  relative viability: 0.77
LCLC-103H; first compound 1 µM
  relative viability: 0.686
LCLC-97TM1; first compound 0.01 µM
  relative viability: 0.261
LCLC-97TM1; first compound 0.03162 µM
  relative viability: 0.227
LCLC-97TM1; first compound 0.1 µM
  relative viability: 0.227
LCLC-97TM1; first compound 0.3162 µM
  relative viability: 0.252
LCLC-97TM1; first compound 1 µM
  relative viability: 0.235
LK-2; first compound 0.01 µM
  relative viability: 0.355
LK-2; first compound 0.03162 µM
  relative viability: 0.324
LK-2; first compound 0.1 µM
  relative viability: 0.338
LK-2; first compound 0.3162 µM
  relative viability: 0.278
LK-2; first compound 1 µM
  relative viability: 0.285
LU99A; first compound 0.01 µM
  relative viability: 0.906
LU99A; first compound 0.03162 µM
  relative viability: 1.01
LU99A; first compound 0.1 µM
  relative viability: 0.993
LU99A; first compound 0.3162 µM
  relative viability: 0.827
LU99A; first compound 1 µM
  relative viability: 0.978
NCI-H1650; first compound 0.01 µM
  relative viability: 0.362
NCI-H1650; first compound 0.03162 µM
  relative viability: 0.384
NCI-H1650; first compound 0.1 µM
  relative viability: 0.489
NCI-H1650; first compound 0.3162 µM
  relative viability: 0.53
NCI-H1650; first compound 1 µM
  relative viability: 0.399
NCI-H1793; first compound 0.01 µM
  relative viability: 0.503
NCI-H1793; first compound 0.03162 µM
  relative viability: 0.502
NCI-H1793; first compound 0.1 µM
  relative viability: 0.564
NCI-H1793; first compound 0.3162 µM
  relative viability: 0.54
NCI-H1793; first compound 1 µM
  relative viability: 0.443
NCI-H2347; first compound 0.01 µM
  relative viability: 0.606
NCI-H2347; first compound 0.03162 µM
  relative viability: 0.632
NCI-H2347; first compound 0.1 µM
  relative viability: 0.609
NCI-H2347; first compound 0.3162 µM
  relative viability: 0.641
NCI-H2347; first compound 1 µM
  relative viability: 0.603
NCI-H23; first compound 0.01 µM
  relative viability: 0.288
NCI-H23; first compound 0.03162 µM
  relative viability: 0.322
NCI-H23; first compound 0.3162 µM
  relative viability: 0.326
NCI-H23; first compound 1 µM
  relative viability: 0.307
NCI-H460; first compound 0.01 µM
  relative viability: 0.509
NCI-H460; first compound 0.03162 µM
  relative viability: 0.48
NCI-H460; first compound 0.1 µM
  relative viability: 0.499
NCI-H460; first compound 0.3162 µM
  relative viability: 0.472
NCI-H460; first compound 1 µM
  relative viability: 0.51
NCI-H596; first compound 0.01 µM
  relative viability: 0.974
NCI-H596; first compound 0.03162 µM
  relative viability: 1.07
NCI-H596; first compound 0.1 µM
  relative viability: 1.09
NCI-H596; first compound 0.3162 µM
  relative viability: 1.03
NCI-H596; first compound 1 µM
  relative viability: 1.05
NCI-H727; first compound 0.01 µM
  relative viability: 0.749
NCI-H727; first compound 0.03162 µM
  relative viability: 0.914
NCI-H727; first compound 0.1 µM
  relative viability: 0.796
NCI-H727; first compound 0.3162 µM
  relative viability: 0.954
NCI-H727; first compound 1 µM
  relative viability: 0.773
PC-14; first compound 0.01 µM
  relative viability: 0.274
PC-14; first compound 0.03162 µM
  relative viability: 0.272
PC-14; first compound 0.1 µM
  relative viability: 0.191
PC-14; first compound 0.3162 µM
  relative viability: 0.267
PC-14; first compound 1 µM
  relative viability: 0.267
PC-3 [JPC-3]; first compound 0.01 µM
  relative viability: 0.809
PC-3 [JPC-3]; first compound 0.03162 µM
  relative viability: 0.859
PC-3 [JPC-3]; first compound 0.1 µM
  relative viability: 0.874
PC-3 [JPC-3]; first compound 0.3162 µM
  relative viability: 0.814
PC-3 [JPC-3]; first compound 1 µM
  relative viability: 0.811
SW 1573; first compound 0.01 µM
  relative viability: 0.625
SW 1573; first compound 0.03162 µM
  relative viability: 0.577
SW 1573; first compound 0.1 µM
  relative viability: 0.529
SW 1573; first compound 0.3162 µM
  relative viability: 0.409
SW 1573; first compound 1 µM
  relative viability: 0.665
SW 900; first compound 0.03162 µM
  relative viability: 0.435
SW 900; first compound 0.1 µM
  relative viability: 0.471
SW 900; first compound 0.3162 µM
  relative viability: 0.459
SW 900; first compound 1 µM
  relative viability: 0.456
